In patent US11000033B2, “Ketone or oxime compound, and herbicide” (NISSAN CHEMICAL CORPORATION, priority 2014, dated 2021):

Experiments:
Format in all cases: in vivo
[1] = tested on: Echinochloa oryzacola Vasing.; assay: Test Example 1: herbicidal activity, application before weed generation in submerged conditions (symbol A); conditions: application herbicide amount 320 g/ha
Outline: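 Paddy pre-emergence test. Formulated emulsion, water-diluted to a predetermined rate, is applied to floodwater on sowing day; rice transplanted at 2.5 leaves. Effect read at 3 weeks on a 0–5 herbicidal-ratio scale.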

Galium spurium [2] = assay: Test Example 4: herbicidal effect by soil treatment (symbol Q); conditions: 320 g/ha
Source text: Herbicidal Effect Test by Soil Treatment
Sterilized diluvial soil was placed in a plastic box having a length of 21 cm, a width of 13 cm, and a depth of 7 cm. Each of the seeds of Digitaria ciliaris, Setaria viridis, Echinochloa crus-galli var. crus-galli, Avena fatua, Alopecurus myosuroides, Lolium multiflorum Lam., Apera spica-venti, Abutilon theophrasti, Amaranthus retroflexus, Chenopodium album, Stellaria media, Galium spurium, Veronica persica, corn, soybean, rice, wheat, beet, and rapeseed was sowed in a spot-like manner and was covered with the soil of a thickness of about 1.5 cm. Subsequently, the emulsion agent of the compound present invention prepared in accordance with Formulation Example 2 was diluted with water so as to be a predetermined herbicide amount and the diluted emulsion agent was uniformly applied to the surface of the soil with a small-size spray. The plastic box was placed in a greenhouse of 25° C. to 30° C. to grow plant. 3 weeks later from the herbicide application, the effect to each plant was investigated in accordance with the criteria of Test Example 1.

Veronica persica = assay: Test Example 5: herbicidal effect by foliage application, plastic box (symbol R); conditions: 320 g/ha, 3 weeks after application
Outline: (§1)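 Seeds were sown in sterilized diluvial soil, covered with about 1.5 cm of soil and grown 14 days in a greenhouse at 25° C. to 30° C. An emulsifiable formulation diluted in water to a set rate was sprayed over foliage, and injury was scored 3 weeks later.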

rapeseed = assay: Test Example 4: effect on crop by soil treatment (symbol g); conditions: for g: rapeseed, effect grade on crop: 320 g/ha; for Effect on crop grade, g: rapeseed: application herbicide amount 320 g/ha
Outline: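 The test used sterilized diluvial soil. Seed was set down in spots and overlaid with about 1.5 cm of soil before growth in a greenhouse kept at 25° C. to 30° C.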

Abutilon theophrasti = assay: Test Example 5: herbicidal effect by foliage application, plastic box (symbol M); conditions: 320 g/ha, 3 weeks after application
Outline: as §1

Avena fatua = assay: Test Example 5: herbicidal effect by foliage application, plastic box (symbol I); conditions: 320 g/ha, 3 weeks after application
Outline: as §1

[3] = tested on: Echinochloa crus-galli var. crus-galli; assay: Test Example 4: herbicidal effect by soil treatment (symbol H); conditions: for H: Echinochloa crus-galli var. crus-galli, herbicidal effect grade: 320 g/ha; for Herbicidal effect grade, H: Echinochloa crus-galli var. crus-galli: application herbicide amount 320 g/ha
Outline: (§2)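 Seeds were sown in sterilized diluvial soil, covered with about 1.5 cm of soil, and the soil surface was sprayed with a water-diluted emulsion of the compound at a predetermined rate. Plants grew in a greenhouse at 25° C. to 30° C.; effects were scored visually 3 weeks after application.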

Amaranthus retroflexus [4] = assay: Test Example 4: herbicidal effect by soil treatment (symbol N); conditions: for N: Amaranthus retroflexus, herbicidal effect grade: 320 g/ha; for Herbicidal effect grade, N: Amaranthus retroflexus: application herbicide amount 320 g/ha
Outline: as §2

Stellaria media = assay: Test Example 5: herbicidal effect by foliage application, plastic box (symbol P); conditions: 320 g/ha, 3 weeks after application
Outline: as §1

Apera spica-venti = assay: Test Example 5: herbicidal effect by foliage application, plastic box (symbol L); conditions: 320 g/ha, 3 weeks after application
Outline: as §1

corn = assay: Test Example 4: effect on crop by soil treatment (symbol c); conditions: for c: corn, effect grade on crop: 320 g/ha; for Effect on crop grade, c: corn: application herbicide amount 320 g/ha
Outline: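 Seeds were sown in spots on sterilized diluvial soil in a plastic box and covered with about 1.5 cm of soil. Plants were then grown in a greenhouse at 25° C. to 30° C.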

Lolium multiflorum Lam. = assay: Test Example 5: herbicidal effect by foliage application, plastic box (symbol K); conditions: 320 g/ha, 3 weeks after application
Outline: as §1

Scirpus juncoides = assay: Test Example 2: herbicidal activity, application during weed generation in submerged conditions (symbol B); conditions: Table 23; application herbicide amount 320 g/ha; grade 0-5 by criteria of Test Example 1
Outline: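 Seeds sown in flooded alluvial soil (4 cm water) were grown in a 25-30° C greenhouse. At the one- to two-leaf stage, diluted emulsion of compound was applied to the water surface at a predetermined rate. Effect was scored 3 weeks later.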

Amaranthus retroflexus [5] = assay: Test Example 5: herbicidal effect by foliage application, plastic box (symbol N); conditions: 320 g/ha, 3 weeks after application
Outline: as §1

Cyperus difformis = assay: Test Example 3: herbicidal effect by foliage application, Wagner pot (symbol E); conditions: application herbicide amount 320 g/ha; for E herbicidal effect grade: Table 24
Outline: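 Plants sown in submerged alluvial soil (water depth 0.1–0.5 cm) in a 25–30 °C greenhouse and grown 14 days. An emulsion of the compound diluted in water to a set herbicide amount was sprayed uniformly on foliage. Effect on each plant scored 3 weeks after application.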

Galium spurium [6] = assay: Test Example 5: herbicidal effect by foliage application, plastic box (symbol Q); conditions: 320 g/ha, 3 weeks after application
Outline: as §1

Structure (SMILES)	Herbicidal effect grade, A: Echinochloa oryzacola Vasing. [1]	R: Veronica persica, herbicidal effect (criteria 0-5) (Veronica persica)	g: rapeseed, effect grade on crop (rapeseed)	M: Abutilon theophrasti, herbicidal effect (criteria 0-5) (Abutilon theophrasti)	I: Avena fatua, herbicidal effect (criteria 0-5) (Avena fatua)	H: Echinochloa crus-galli var. crus-galli, herbicidal effect grade [3]	N: Amaranthus retroflexus, herbicidal effect grade (Amaranthus retroflexus [4])	P: Stellaria media, herbicidal effect (criteria 0-5) (Stellaria media)	L: Apera spica-venti, herbicidal effect (criteria 0-5) (Apera spica-venti)	c: corn, effect grade on crop (corn)	K: Lolium multiflorum Lam., herbicidal effect (criteria 0-5) (Lolium multiflorum Lam.)	Herbicidal effect grade, B: Scirpus juncoides (Scirpus juncoides)	A (Echinochloa oryzacola Vasing.) herbicidal effect grade [1]	N: Amaranthus retroflexus, herbicidal effect grade (Amaranthus retroflexus [5])	R: Veronica persica, herbicidal effect grade (Veronica persica)	E herbicidal effect grade (Cyperus difformis)	Effect on crop grade, g: rapeseed (rapeseed)	M: Abutilon theophrasti, herbicidal effect grade (Abutilon theophrasti)	I: Avena fatua, herbicidal effect grade (Avena fatua)	Herbicidal effect grade, H: Echinochloa crus-galli var. crus-galli [3]	also measured
CON=C(CC1CC(O)=C(c2c(C)cc(C)cc2C)C1=O)C(F)(F)F (stereo not shown) [1-097]	3 (Herbicidal ratio of 40% or higher and lower than 70%)	3 (Herbicidal ratio of 40% or higher and lower than 70%)	3 (Herbicidal ratio of 40% or higher and lower than 70%)	3 (Herbicidal ratio of 40% or higher and lower than 70%)	3 (Herbicidal ratio of 40% or higher and lower than 70%)	2 (Herbicidal ratio of 20% or higher and lower than 40%)	0 (Herbicidal ratio of 5% or lower (almost no effect))	0 (Herbicidal ratio of 5% or lower (almost no effect))	4 (Herbicidal ratio of 70% or higher and lower than 90%)	1 (Herbicidal ratio of 5% or higher and lower than 20%)	5 (Herbicidal ratio of 90% or more (almost completely withered))	0 (Herbicidal ratio of 5% or lower (almost no effect))									Q: Galium spurium, herbicidal effect grade (Galium spurium [2]): 0 (Herbicidal ratio of 5% or lower (almost no effect))
CC(CC1CC(O)=C(c2c(C)cc(-n3cc(Cl)cn3)cc2C)C1=O)=NOCC(F)(F)F (stereo not shown) [9-010]												4 (Herbicidal ratio of 70% or higher and lower than 90%)	5 (Herbicidal ratio of 90% or more (almost completely withered))	3 (Herbicidal ratio of 40% or higher and lower than 70%)	3 (Herbicidal ratio of 40% or higher and lower than 70%)	5 (Herbicidal ratio of 90% or more (almost completely withered))	0 (Herbicidal ratio of 5% or lower (almost no effect))	0 (Herbicidal ratio of 5% or lower (almost no effect))	4 (Herbicidal ratio of 70% or higher and lower than 90%)	5 (Herbicidal ratio of 90% or more (almost completely withered))	Q: Galium spurium, herbicidal effect grade (Galium spurium [6]): 3 (Herbicidal ratio of 40% or higher and lower than 70%); Herbicidal effect grade, N: Amaranthus retroflexus (Amaranthus retroflexus [4]): 0 (Herbicidal ratio of 5% or lower (almost no effect)); P: Stellaria media, herbicidal effect grade (Stellaria media): 3 (Herbicidal ratio of 40% or higher and lower than 70%); L: Apera spica-venti, herbicidal effect grade (Apera spica-venti): 5 (Herbicidal ratio of 90% or more (almost completely withered)); Effect on crop grade, c: corn (corn): 1 (Herbicidal ratio of 5% or higher and lower than 20%); K: Lolium multiflorum Lam., herbicidal effect grade (Lolium multiflorum Lam.): 5 (Herbicidal ratio of 90% or more (almost completely withered))
Cc1cc(C)c(C2=C(O)CC(CC(=NOCC(F)(F)F)C3CC3)C2=O)c(C)c1 (stereo not shown) [1-131]	5 (Herbicidal ratio of 90% or more (almost completely withered))	4 (Herbicidal ratio of 70% or higher and lower than 90%)	4 (Herbicidal ratio of 70% or higher and lower than 90%)	0 (Herbicidal ratio of 5% or lower (almost no effect))	4 (Herbicidal ratio of 70% or higher and lower than 90%)	5 (Herbicidal ratio of 90% or more (almost completely withered))	0 (Herbicidal ratio of 5% or lower (almost no effect))	0 (Herbicidal ratio of 5% or lower (almost no effect))	5 (Herbicidal ratio of 90% or more (almost completely withered))	0 (Herbicidal ratio of 5% or lower (almost no effect))	5 (Herbicidal ratio of 90% or more (almost completely withered))	4 (Herbicidal ratio of 70% or higher and lower than 90%)									N: Amaranthus retroflexus, herbicidal effect (criteria 0-5) (Amaranthus retroflexus [5]): 0 (Herbicidal ratio of 5% or lower (almost no effect)); herbicidal effect on E, grade 0-5 (Cyperus difformis): 5 (Herbicidal ratio of 90% or more (almost completely withered)); Q: Galium spurium, herbicidal effect (criteria 0-5) (Galium spurium [6]): 0 (Herbicidal ratio of 5% or lower (almost no effect))
CC#Cc1cc(C)c(C2=C(O)CC(CC(=NOCC(F)(F)F)C(C)C)C2=O)c(C)c1 (stereo not shown) [9-015]												3 (Herbicidal ratio of 40% or higher and lower than 70%)	5 (Herbicidal ratio of 90% or more (almost completely withered))	0 (Herbicidal ratio of 5% or lower (almost no effect))	4 (Herbicidal ratio of 70% or higher and lower than 90%)	5 (Herbicidal ratio of 90% or more (almost completely withered))	0 (Herbicidal ratio of 5% or lower (almost no effect))	0 (Herbicidal ratio of 5% or lower (almost no effect))	4 (Herbicidal ratio of 70% or higher and lower than 90%)	5 (Herbicidal ratio of 90% or more (almost completely withered))	Q: Galium spurium, herbicidal effect grade (Galium spurium [6]): 2 (Herbicidal ratio of 20% or higher and lower than 40%); Herbicidal effect grade, N: Amaranthus retroflexus (Amaranthus retroflexus [4]): 0 (Herbicidal ratio of 5% or lower (almost no effect)); P: Stellaria media, herbicidal effect grade (Stellaria media): 3 (Herbicidal ratio of 40% or higher and lower than 70%); L: Apera spica-venti, herbicidal effect grade (Apera spica-venti): 5 (Herbicidal ratio of 90% or more (almost completely withered)); Effect on crop grade, c: corn (corn): 0 (Herbicidal ratio of 5% or lower (almost no effect)); K: Lolium multiflorum Lam., herbicidal effect grade (Lolium multiflorum Lam.): 5 (Herbicidal ratio of 90% or more (almost completely withered))
CON=C(CC1CC(O)=C(c2c(C)cc(C)cc2C)C1=O)c1ccc(F)cc1 (stereo not shown) [1-133]	4 (Herbicidal ratio of 70% or higher and lower than 90%)	3 (Herbicidal ratio of 40% or higher and lower than 70%)	0 (Herbicidal ratio of 5% or lower (almost no effect))	0 (Herbicidal ratio of 5% or lower (almost no effect))	3 (Herbicidal ratio of 40% or higher and lower than 70%)	4 (Herbicidal ratio of 70% or higher and lower than 90%)	0 (Herbicidal ratio of 5% or lower (almost no effect))	3 (Herbicidal ratio of 40% or higher and lower than 70%)	2 (Herbicidal ratio of 20% or higher and lower than 40%)	0 (Herbicidal ratio of 5% or lower (almost no effect))	5 (Herbicidal ratio of 90% or more (almost completely withered))	0 (Herbicidal ratio of 5% or lower (almost no effect))									N: Amaranthus retroflexus, herbicidal effect (criteria 0-5) (Amaranthus retroflexus [5]): 0 (Herbicidal ratio of 5% or lower (almost no effect)); herbicidal effect on E, grade 0-5 (Cyperus difformis): 0 (Herbicidal ratio of 5% or lower (almost no effect)); Q: Galium spurium, herbicidal effect (criteria 0-5) (Galium spurium [6]): 0 (Herbicidal ratio of 5% or lower (almost no effect))
